This test concerns the target T1, Bd1971 (Bdellovibrio bacteriovorus, UniProt Q6MLN6).
T1 construct: ITC: Bd1971ΔEAL (residues 1–150); crystal: full-length
The test is described as follows: ITC (two-site model) and co-crystal structure; also activates phosphodiesterase activity (K half […]). Format: binding.

T1 sequence (Q6MLN6 entry or part of it): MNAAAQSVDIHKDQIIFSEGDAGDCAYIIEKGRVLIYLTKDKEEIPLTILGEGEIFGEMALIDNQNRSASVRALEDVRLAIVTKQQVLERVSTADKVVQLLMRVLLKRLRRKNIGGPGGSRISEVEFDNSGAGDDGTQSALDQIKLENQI

The term Kd denotes a measure of binding affinity in units of concentration. Lower therefore signals a tighter complex. `Nc1nc2c(ncn2[C@@H]2O[C@@H]3COP(=O)(O)O[C@H]3[C@H]2O)c(=O)[nH]1` [cGMP] showed a Kd of 769 nM.
